# Reference: patent US11952330B2, “Antibiotic ammonium compounds and methods for the treatment of bacterial infections” (priority 2019, dated 2024)
# Like-named read-outs stand apart in the source and are kept apart here.
# How the values were obtained:
# A. baumannii [1] = test: MIC by broth dilution, A. baumannii; type: cell-based; conditions: Acinetobacter baumannii, Mueller-Hinton broth
# Procedure, shortened: (§1)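 Broth dilution in Mueller-Hinton broth with 2-fold compound steps over 1–256 μg/mL (final) and 5×10^5 CFU/mL inoculum, incubated overnight at 37 °C. The MIC is the lowest concentration without visible turbidity, from at least biological duplicates of technical triplicates. A parallel series was supplemented with 5% (final) human plasma.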
# A. baumannii [2] = test: MIC by broth dilution in presence of 5% human plasma (esterases), A. baumannii; type: cell-based; conditions: for Δ MIC A. baumannii + human plasma: broth supplemented with 5% human plasma (esterases) vs no plasma
# Method: The antibacterial efficacy of ammonium compounds in the presence of human plasma was assessed. Minimum inhibitory concentrations (MICs) were determined by broth dilution method. Dilutions of each compound, ranging from 1 μg/mL to 256 μg/mL (final concentrations) were prepared in Mueller-Hinton broth. For the plasma containing samples, compound dilutions were made in Mueller-Hinton broth and supplemented with 5% (final %) human plasma (esterases). Compound dilutions were added to wells of a 96-well plate, with the concentration of the compound increasing 2-fold by row. Each well contained 5×10^5 CFU/mL of target bacterium in a total volume of 100 μL. Plates were incubated overnight at 37° C. The following day, plates were evaluated for a visual change in growth to determine the MIC. The concentration value corresponding to the first row that no longer had visible bacterial growth, as evaluated by turbidity in the wells, was recorded as the MIC. MIC values were representative of at least biological duplicates, each made up of technical triplicates.
# S. aureus = test: MIC by broth dilution, S. aureus; type: cell-based; conditions: for MIC: Staphylococcus aureus, Mueller-Hinton broth; for selectivity for Gram positive microbes over Gram negative microbes, in words: S. aureus vs A. baumannii
# Procedure, shortened: as §1
# human red blood cell = test: In vitro hemolysis assay; type: cell-based; conditions: for % hemolysis at 16 μg/ml / % hemolysis at 32 μg/ml: human RBCs, 37° C., 1 hour; for hemolysis as compared to otilonium bromide (11), in words: 16 and 32 μg/mL; for reduction in hemolysis as compared to otilonium bromide (11): at 32 μg/mL
# Method: The hemolytic potential of ammonium compounds were assessed in vitro. A human red blood cell solution (RBC) was prepared by washing 400 μL of fresh RBCs twice with 7 mL of 1×PBS (pH 7.4) by centrifugation at 4° C., 2500 rpm for 10 minutes. The precipitates were then resuspended in 4 mL of 1×PBS. Hemolysis testing was performed by mixing 500 μL of freshly prepared test compound solutions at a final concentration of both 16 μg/mL and 32 μg/mL in 1×PBS with 400 μL of the washed human RBCs. Two control samples were prepared by separately mixing 400 μL of washed RBCs with 500 μL of 1×PBS (negative control) and 1% Triton X-100 (w/v). After incubation in a water bath at 37° C. for 1 hour, the samples were centrifuged at 2500 rpm for 10 minutes. 300 μL of the supernatant were collected for measurement in a 96-well plate. The release of hemoglobin was assessed by measuring the absorbance of the samples at 540 nm using 1×PBS as the blank. Hemolysis percent was calculated using Equation 1: […]
# [3] = tested on: enterotoxigenic Escherichia coli (ETEC); test: Mouse assay, oral inoculation with ETEC, viable bacteria in intestines; type: in vivo; conditions: neonate CD-1 mice, 10^7 CFU oral, compound co-administered at 1 mg/kg, intestines harvested after 4 hours
# Method: (§2) Mouse assays were used to evaluate the in vivo activity of compound 95. Male and female neonate CD-1 mice were orally innoculated with 10^7 colony forming units of enterotoxigenic Escherichia coli (ETEC) (FIG. 2A) or vancomycin-resistant enterococcus (VRE) (FIG. 2B) and co-administered compound 95 at 1 mg/kg. Intestines were harvested after 4 hours and plated to determine viable bacteria.
# [4] = tested on: vancomycin-resistant enterococcus (VRE); test: Mouse assay, oral inoculation with VRE, viable bacteria in intestines; type: in vivo; conditions: neonate CD-1 mice, 10^7 CFU oral, compound co-administered at 1 mg/kg, intestines harvested after 4 hours
# Method: as §2
# [5] = no plasma, Table 2, read-out: MIC (μg/ml) A. baumannii
# [6] = overnight 37° C., Table 1, read-out: MIC (μg/mL) A. baumannii
# [7] = no plasma, Table 2, read-out: MIC (μg/ml) S. aureus
# [8] = overnight 37° C., Table 1, read-out: MIC (μg/mL) S. aureus
MIC (A. baumannii [1]; [5]) [µg/mL],MIC (A. baumannii [1]; [6]) [µg/mL],Δ MIC A. baumannii + human plasma (A. baumannii [2]) [X],MIC (S. aureus; [7]) [µg/mL],MIC (S. aureus; [8]) [µg/mL],SMILES,% hemolysis at 16 μg/ml (human red blood cell) [%],% hemolysis at 32 μg/ml (human red blood cell) [%],"stability in the presence of enzymes that are found in the gut, compared with otilonium bromide (11), in words (A. baumannii [2]; 5% human plasma)","antimicrobial activity against Gram positive S. aureus relative to otilonium bromide, in words (S. aureus)","selectivity for Gram positive microbes over Gram negative microbes, in words (S. aureus)","hemolysis as compared to otilonium bromide (11), in words (human red blood cell)",reduction in hemolysis as compared to otilonium bromide (11) (human red blood cell) [%],"increase in stability (A. baumannii [2]; 5% human plasma, vs otilonium bromide (11))",viability and colonization of ETEC in intestines [3],viability and colonization of VRE in intestines [4]
3 to 30,3 to 30,8,3 to 30,3 to 30,"CCCCCCCCOc1ccccc1C(=O)Nc1ccc(C(=O)OCC[N+](C)(C)C)cc1.[Br-] [Compound 11, N,N,N-Trimethyl-2-((4-(2-(octyloxy)benzamido)benzoyl)oxy)ethan-1-aminium bromide]",7,92,–,–,–,–,–,–,–,–
> 30,> 30,–,< 3,3 to 30,"CCCCCCCCOc1cccc(OCCCCCCCC)c1C(=O)Nc1ccc(C(=O)OCC[N+](C)(CC)CC)cc1.[Br-] [Compound 17, 2-((4-(2,6-Bis(octyloxy)benzamido)benzoyl)oxy)-N,N-diethyl-N-methylethan-1-aminium bromide]",59,90,better stability than otilonium bromide,comparable or better than the activity of otilonium bromide,virtually complete selectivity for Gram positive microbes,reduced hemolysis as compared to otilonium bromide,–,–,–,–
3 to 30,3 to 30,8,< 3,< 3,"CCCCCCOc1ccccc1C(=O)Nc1ccc(C(=O)OCC[N+](CC)(CC)CCCCC)cc1.[Br-] [Compound 68, N,N-Diethyl-N-(2-((4-(2-(hexyloxy)benzamido)benzoyl)oxy)ethyl)pentan-1-aminium bromide]",2,5,better stability than otilonium bromide,comparable or better than the activity of otilonium bromide,improved selective for Gram positive microbes over Gram negative microbes,reduced hemolysis as compared to otilonium bromide,94,–,–,–
3 to 30,3 to 30,2,3 to 30,3 to 30,"CCCCCCCOc1cc(F)ccc1C(=O)Nc1ccc(S(=O)(=O)NCC[N+](CC)(CC)CCCC)cc1.[Br-] [Compound 95, N,N-Diethyl-N-(2-((4-(4-fluoro-2-(heptyloxy)benzamido)phenyl)sulfonamido)-ethyl)butan-1-aminium bromide]",3,14,better stability than otilonium bromide,comparable or better than the activity of otilonium bromide,–,reduced hemolysis as compared to otilonium bromide,85,four- to eight-fold,significantly decreased viablity and colonization,significantly decreased viablity and colonization
–,> 30,–,–,3 to 30,"CC[N+](C)(CC)CCOC(=O)c1ccc(NC(=O)c2ccccc2OCCCCC(C)C)cc1.[Br-] [Compound 97, N,N-Diethyl-N-methyl-2-((4-(2-((5-methylhexyl)oxy)benzamido)benzoyl)oxy)-ethan-1-aminium bromide]",–,–,–,–,–,–,–,–,–,–
–,> 30,–,–,> 30,"CC[N+](C)(CC)CCOC(=O)c1ccc(NC(=O)c2ccccc2OC2CCC(C)CC2)cc1.[Br-] (centres unmarked) [Compound 98, N,N-Diethyl-N-methyl-2-((4-(2-(((1s,4s)-4-methylcyclohexyl)oxy)benzamido)-benzoyl)oxy)ethan-1-aminium bromide]",–,–,–,–,–,–,–,–,–,–
